Source: the kinase profiling compilation of Christmann-Franck et al. (2016)

Key:
Experiment in all cases: KINOMEscan competition binding
Details in all cases: compound 10.0 µM
MARK1 (human) = MARK1 (human) (UniProt Q9P0L2)
CAMKK2 (human) = CAMKK2 (human) (UniProt Q96RR4)
ERN1 (human) = ERN1 (human) (UniProt O75460)
TXK (human) = TXK (human) (UniProt P42681)
NEK2 (human) = NEK2 (human) (UniProt P51955)
MAPK11 (human) = MAPK11 (human) (UniProt Q15759)
HIPK4 (human) = HIPK4 (human) (UniProt Q8NE63)
Chain of HIPK4 (human) (Q8NE63 whole entry, looked up): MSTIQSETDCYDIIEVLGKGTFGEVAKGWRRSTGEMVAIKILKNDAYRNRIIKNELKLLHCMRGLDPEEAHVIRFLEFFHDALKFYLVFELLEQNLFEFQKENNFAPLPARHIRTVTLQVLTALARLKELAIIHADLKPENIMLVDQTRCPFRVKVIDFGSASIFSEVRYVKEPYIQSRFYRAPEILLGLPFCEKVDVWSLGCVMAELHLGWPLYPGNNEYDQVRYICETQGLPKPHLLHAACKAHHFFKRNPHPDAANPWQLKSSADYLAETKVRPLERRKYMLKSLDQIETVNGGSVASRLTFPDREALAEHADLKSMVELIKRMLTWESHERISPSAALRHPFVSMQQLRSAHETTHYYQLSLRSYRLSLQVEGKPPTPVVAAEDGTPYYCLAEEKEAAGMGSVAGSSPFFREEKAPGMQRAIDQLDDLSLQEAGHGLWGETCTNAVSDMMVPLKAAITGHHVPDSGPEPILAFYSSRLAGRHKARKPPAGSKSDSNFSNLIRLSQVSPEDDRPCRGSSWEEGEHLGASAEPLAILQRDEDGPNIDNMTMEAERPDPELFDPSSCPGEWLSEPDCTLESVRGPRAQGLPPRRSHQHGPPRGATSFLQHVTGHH

[1] = biological target: JAK2 JH1 catalytic (human) (UniProt O60674)
Chain of JAK2 JH1 catalytic (human) (O60674 whole entry, looked up): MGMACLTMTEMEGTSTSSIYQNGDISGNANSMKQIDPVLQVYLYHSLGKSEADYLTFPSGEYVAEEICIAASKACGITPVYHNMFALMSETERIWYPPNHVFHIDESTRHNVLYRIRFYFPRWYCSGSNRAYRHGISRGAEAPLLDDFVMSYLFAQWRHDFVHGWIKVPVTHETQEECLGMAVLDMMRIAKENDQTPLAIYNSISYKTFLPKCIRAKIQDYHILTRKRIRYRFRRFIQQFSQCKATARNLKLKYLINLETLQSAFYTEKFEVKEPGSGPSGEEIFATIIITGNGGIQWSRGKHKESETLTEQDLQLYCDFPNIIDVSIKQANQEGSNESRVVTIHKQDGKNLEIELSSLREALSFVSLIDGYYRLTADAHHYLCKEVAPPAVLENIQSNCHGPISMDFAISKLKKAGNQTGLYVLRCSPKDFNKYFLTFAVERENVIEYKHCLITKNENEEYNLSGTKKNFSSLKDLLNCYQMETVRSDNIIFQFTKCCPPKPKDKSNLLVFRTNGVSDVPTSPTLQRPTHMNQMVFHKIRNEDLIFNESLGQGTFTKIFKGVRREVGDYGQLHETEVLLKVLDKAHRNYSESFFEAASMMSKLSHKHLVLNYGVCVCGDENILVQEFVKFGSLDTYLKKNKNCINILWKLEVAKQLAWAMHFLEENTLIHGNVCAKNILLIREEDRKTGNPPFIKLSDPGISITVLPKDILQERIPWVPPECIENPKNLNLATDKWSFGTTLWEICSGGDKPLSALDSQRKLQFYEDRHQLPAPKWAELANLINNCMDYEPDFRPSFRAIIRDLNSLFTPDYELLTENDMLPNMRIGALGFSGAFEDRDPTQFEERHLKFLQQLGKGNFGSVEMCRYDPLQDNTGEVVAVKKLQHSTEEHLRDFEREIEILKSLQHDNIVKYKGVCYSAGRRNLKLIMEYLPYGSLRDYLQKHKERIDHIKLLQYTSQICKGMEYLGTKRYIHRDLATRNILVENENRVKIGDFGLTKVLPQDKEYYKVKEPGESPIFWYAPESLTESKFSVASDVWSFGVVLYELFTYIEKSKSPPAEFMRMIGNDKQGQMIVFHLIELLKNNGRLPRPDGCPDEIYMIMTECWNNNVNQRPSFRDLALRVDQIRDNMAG

ICK (human) = ICK (human) (UniProt Q9UPZ9)
STK24 (human) = STK24 (human) (UniProt Q9Y6E0)
MELK (human) = MELK (human) (UniProt Q14680)
BRSK1 (human) = BRSK1 (human) (UniProt Q8TDC3)
STK3 (human) = STK3 (human) (UniProt Q13188)
CSNK1E (human) = CSNK1E (human) (UniProt P49674)
MYO3A (human) = MYO3A (human) (UniProt Q8NEV4)
MYO3B (human) = MYO3B (human) (UniProt Q8WXR4)
CDKL2 (human) = CDKL2 (human) (UniProt Q92772)
Chain of CDKL2 (human) (Q92772 whole entry, looked up): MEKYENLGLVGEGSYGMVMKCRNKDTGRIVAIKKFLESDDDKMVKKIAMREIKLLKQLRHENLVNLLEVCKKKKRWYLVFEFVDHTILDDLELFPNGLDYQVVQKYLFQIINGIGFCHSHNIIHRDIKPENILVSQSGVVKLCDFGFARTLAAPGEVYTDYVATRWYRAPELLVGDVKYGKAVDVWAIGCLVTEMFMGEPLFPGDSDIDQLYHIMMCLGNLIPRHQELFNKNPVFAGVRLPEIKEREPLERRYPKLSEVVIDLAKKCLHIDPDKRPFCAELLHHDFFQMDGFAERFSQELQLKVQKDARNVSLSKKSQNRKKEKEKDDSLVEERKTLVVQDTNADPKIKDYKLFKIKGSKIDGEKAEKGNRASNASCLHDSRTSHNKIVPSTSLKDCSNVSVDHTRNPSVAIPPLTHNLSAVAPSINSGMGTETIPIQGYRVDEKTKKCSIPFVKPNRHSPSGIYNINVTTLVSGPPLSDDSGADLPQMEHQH

NUAK1 (human) = NUAK1 (human) (UniProt O60285)
SGK110 (human) = SGK110 (human) (UniProt P0C264)
Chain of SGK110 (human) (P0C264 whole entry, looked up): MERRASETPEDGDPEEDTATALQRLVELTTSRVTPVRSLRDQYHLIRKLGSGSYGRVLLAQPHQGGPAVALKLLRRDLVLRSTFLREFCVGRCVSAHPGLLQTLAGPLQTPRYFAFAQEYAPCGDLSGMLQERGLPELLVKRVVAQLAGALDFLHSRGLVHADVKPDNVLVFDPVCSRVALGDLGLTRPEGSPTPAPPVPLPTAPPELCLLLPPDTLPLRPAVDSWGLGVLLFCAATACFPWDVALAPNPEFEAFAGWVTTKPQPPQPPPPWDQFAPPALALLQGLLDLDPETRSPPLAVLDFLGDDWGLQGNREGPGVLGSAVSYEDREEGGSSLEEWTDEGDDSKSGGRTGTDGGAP

MAPKAPK2 (human) = MAPKAPK2 (human) (UniProt P49137)
Chain of MAPKAPK2 (human) (P49137 whole entry, looked up): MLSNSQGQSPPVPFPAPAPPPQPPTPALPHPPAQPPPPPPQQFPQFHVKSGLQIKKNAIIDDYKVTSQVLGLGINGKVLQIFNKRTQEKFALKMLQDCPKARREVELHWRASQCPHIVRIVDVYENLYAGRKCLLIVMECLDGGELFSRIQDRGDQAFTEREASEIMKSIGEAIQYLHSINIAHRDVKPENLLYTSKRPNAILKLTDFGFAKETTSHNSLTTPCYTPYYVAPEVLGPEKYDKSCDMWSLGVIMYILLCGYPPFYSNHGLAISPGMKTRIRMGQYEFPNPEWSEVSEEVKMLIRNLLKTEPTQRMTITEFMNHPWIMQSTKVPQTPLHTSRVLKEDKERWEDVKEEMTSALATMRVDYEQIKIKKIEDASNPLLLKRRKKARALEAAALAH

PIM3 (human) = PIM3 (human) (UniProt Q86V86)
EGFR (human) = EGFR (human) (UniProt P00533)
IRAK4 (human) = IRAK4 (human) (UniProt Q9NWZ3)
MAP2K7 (human) = MAP2K7 (human) (UniProt O14733)
STK38 (human) = STK38 (human) (UniProt Q15208)
RPS6KA4 KD1 (human) = RPS6KA4 KD1 (human) (UniProt O75676)
STK10 (human) = STK10 (human) (UniProt O94804)
[2] = test system: EGFR (human), P00533 [747-751 del / S ins]
RIOK3 (human) = RIOK3 (human) (UniProt O14730)
DMPK (human) = DMPK (human) (UniProt Q09013)
EPHB2 (human) = EPHB2 (human) (UniProt P29323)
TESK1 (human) = TESK1 (human) (UniProt Q15569)
Chain of TESK1 (human) (Q15569 whole entry, looked up): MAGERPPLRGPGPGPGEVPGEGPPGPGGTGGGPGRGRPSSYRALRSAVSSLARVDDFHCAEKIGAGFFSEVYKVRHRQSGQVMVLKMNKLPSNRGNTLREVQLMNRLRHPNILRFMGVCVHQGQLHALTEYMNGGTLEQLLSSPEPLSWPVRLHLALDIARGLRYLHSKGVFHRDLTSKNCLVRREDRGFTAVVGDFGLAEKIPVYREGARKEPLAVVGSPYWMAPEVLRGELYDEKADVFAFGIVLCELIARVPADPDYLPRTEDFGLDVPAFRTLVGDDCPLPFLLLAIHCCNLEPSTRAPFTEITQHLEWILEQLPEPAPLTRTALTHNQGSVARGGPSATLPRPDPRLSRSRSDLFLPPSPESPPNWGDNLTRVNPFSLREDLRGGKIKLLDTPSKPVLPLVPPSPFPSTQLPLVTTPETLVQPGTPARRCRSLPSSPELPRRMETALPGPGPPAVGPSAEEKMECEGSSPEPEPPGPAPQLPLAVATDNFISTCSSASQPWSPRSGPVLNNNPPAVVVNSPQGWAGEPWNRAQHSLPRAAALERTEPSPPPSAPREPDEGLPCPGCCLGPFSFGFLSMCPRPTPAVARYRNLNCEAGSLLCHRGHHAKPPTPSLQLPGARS

SNRK (human) = SNRK (human) (UniProt Q9NRH2)
DDR1 (human) = DDR1 (human) (UniProt Q08345)
ACVR1 (human) = ACVR1 (human) (UniProt Q04771)
HIPK2 (human) = HIPK2 (human) (UniProt Q9H2X6)
IKBKE (human) = IKBKE (human) (UniProt Q14164)
RPS6KA4 KD2 (human) = RPS6KA4 KD2 (human) (UniProt O75676)
[3] = test system: KIT (human), P10721 [V559D/V654A]
NTRK1 (human) = NTRK1 (human) (UniProt P04629)

Chain of MARK1 (human) (Q9P0L2 whole entry, looked up): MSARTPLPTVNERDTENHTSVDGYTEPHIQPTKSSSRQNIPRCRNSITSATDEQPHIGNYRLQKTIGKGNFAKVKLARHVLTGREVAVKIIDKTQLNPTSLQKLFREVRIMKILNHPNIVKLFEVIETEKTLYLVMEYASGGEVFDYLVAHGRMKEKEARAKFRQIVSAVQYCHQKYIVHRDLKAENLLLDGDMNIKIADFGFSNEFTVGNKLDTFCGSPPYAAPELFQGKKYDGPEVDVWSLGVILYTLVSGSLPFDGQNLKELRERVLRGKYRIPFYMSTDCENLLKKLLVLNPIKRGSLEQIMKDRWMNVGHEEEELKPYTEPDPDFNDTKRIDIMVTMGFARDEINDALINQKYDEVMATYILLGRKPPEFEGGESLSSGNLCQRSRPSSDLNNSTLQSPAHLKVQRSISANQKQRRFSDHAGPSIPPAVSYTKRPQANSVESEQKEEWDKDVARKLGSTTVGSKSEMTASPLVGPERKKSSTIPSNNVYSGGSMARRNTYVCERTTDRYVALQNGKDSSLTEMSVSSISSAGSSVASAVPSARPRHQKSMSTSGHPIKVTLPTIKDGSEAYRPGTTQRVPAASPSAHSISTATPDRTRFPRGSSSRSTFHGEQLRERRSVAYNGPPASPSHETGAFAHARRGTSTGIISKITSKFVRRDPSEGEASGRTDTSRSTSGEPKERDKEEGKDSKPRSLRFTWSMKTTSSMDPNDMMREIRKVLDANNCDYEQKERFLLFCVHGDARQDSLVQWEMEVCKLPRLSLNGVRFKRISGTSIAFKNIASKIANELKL

Structure (SMILES)	kinase still bound, per cent of control (MARK1 (human)) [%]	kinase still bound, per cent of control (ERN1 (human)) [%]	kinase still bound, per cent of control (TXK (human)) [%]	kinase still bound, per cent of control (NEK2 (human)) [%]	kinase still bound, per cent of control (MAPK11 (human)) [%]	kinase still bound, per cent of control (HIPK4 (human)) [%]	kinase still bound, per cent of control [1] [%]	kinase still bound, per cent of control (STK24 (human)) [%]	kinase still bound, per cent of control (MELK (human)) [%]	kinase still bound, per cent of control (CSNK1E (human)) [%]	kinase still bound, per cent of control (MYO3A (human)) [%]	kinase still bound, per cent of control (MYO3B (human)) [%]	kinase still bound, per cent of control (CDKL2 (human)) [%]	kinase still bound, per cent of control (NUAK1 (human)) [%]	kinase still bound, per cent of control (SGK110 (human)) [%]	kinase still bound, per cent of control (MAPKAPK2 (human)) [%]	kinase still bound, per cent of control (PIM3 (human)) [%]	kinase still bound, per cent of control (IRAK4 (human)) [%]	kinase still bound, per cent of control (MAP2K7 (human)) [%]	kinase still bound, per cent of control (STK38 (human)) [%]	also measured
N#CCNC(=O)c1ccc(-c2ccnc(Nc3ccc(N4CCOCC4)cc3)n2)cc1	66	100	100	77	100	12	0.1	64	100	100	100	100	69	45	83	100	100	64	100	59	kinase still bound, per cent of control (CAMKK2 (human)): 51%; kinase still bound, per cent of control (ICK (human)): 100%; kinase still bound, per cent of control (BRSK1 (human)): 100%; kinase still bound, per cent of control (STK3 (human)): 52%; kinase still bound, per cent of control (EGFR (human)): 100%; kinase still bound, per cent of control (RPS6KA4 KD1 (human)): 100%; kinase still bound, per cent of control (STK10 (human)): 100%; kinase still bound, per cent of control [2]: 70%; kinase still bound, per cent of control (RIOK3 (human)): 0%; kinase still bound, per cent of control (DMPK (human)): 37%; kinase still bound, per cent of control (EPHB2 (human)): 100%; kinase still bound, per cent of control (TESK1 (human)): 100%; kinase still bound, per cent of control (SNRK (human)): 89%; kinase still bound, per cent of control (DDR1 (human)): 100%; kinase still bound, per cent of control (ACVR1 (human)): 0.95%; kinase still bound, per cent of control (HIPK2 (human)): 15%; kinase still bound, per cent of control (IKBKE (human)): 5.2%; kinase still bound, per cent of control (RPS6KA4 KD2 (human)): 100%; kinase still bound, per cent of control [3]: 100%
COc1cc2ncn(-c3cc(OCc4ccccc4C(F)(F)F)c(C(N)=O)s3)c2cc1OC	82	75	72	14	88	15	48	87	61	77	81	100	90	21	100	100	63	58	87	94	kinase still bound, per cent of control (CAMKK2 (human)): 44%; kinase still bound, per cent of control (ICK (human)): 100%; kinase still bound, per cent of control (STK3 (human)): 1.8%; kinase still bound, per cent of control (RPS6KA4 KD1 (human)): 69%; kinase still bound, per cent of control (STK10 (human)): 0%; kinase still bound, per cent of control [2]: 100%; kinase still bound, per cent of control (RIOK3 (human)): 4.2%; kinase still bound, per cent of control (DMPK (human)): 98%; kinase still bound, per cent of control (EPHB2 (human)): 94%; kinase still bound, per cent of control (TESK1 (human)): 73%; kinase still bound, per cent of control (SNRK (human)): 83%; kinase still bound, per cent of control (DDR1 (human)): 100%; kinase still bound, per cent of control (NTRK1 (human)): 78%; kinase still bound, per cent of control (ACVR1 (human)): 60%; kinase still bound, per cent of control (HIPK2 (human)): 89%; kinase still bound, per cent of control (IKBKE (human)): 60%; kinase still bound, per cent of control (RPS6KA4 KD2 (human)): 70%; kinase still bound, per cent of control [3]: 100%
C[C@@H](Oc1cc(-c2cnn(C3CCNCC3)c2)cnc1N)c1c(Cl)ccc(F)c1Cl	36	42	5.9	81	100	15	1.4	44	47	100	66	100	5.4	0.7	3.4	100	100	24	83	68	kinase still bound, per cent of control (BRSK1 (human)): 48%; kinase still bound, per cent of control (STK3 (human)): 0%; kinase still bound, per cent of control (RPS6KA4 KD1 (human)): 100%; kinase still bound, per cent of control (STK10 (human)): 0%; kinase still bound, per cent of control (RIOK3 (human)): 3.4%; kinase still bound, per cent of control (DMPK (human)): 1.6%; kinase still bound, per cent of control (EPHB2 (human)): 24%; kinase still bound, per cent of control (SNRK (human)): 100%; kinase still bound, per cent of control (DDR1 (human)): 0.4%; kinase still bound, per cent of control (NTRK1 (human)): 0.1%; kinase still bound, per cent of control (ACVR1 (human)): 0.6%; kinase still bound, per cent of control (HIPK2 (human)): 93%; kinase still bound, per cent of control (IKBKE (human)): 60%; kinase still bound, per cent of control (RPS6KA4 KD2 (human)): 50%; kinase still bound, per cent of control [3]: 100%
NC(=O)Nc1cc(-c2cccc(F)c2)sc1C(=O)N[C@@H]1CCCNC1	2.6	25	0.1	75	77	38	0	0.3	1.4	11	4.2	8.2	60	0	0	0	15	0	80	4	kinase still bound, per cent of control (CAMKK2 (human)): 2.9%; kinase still bound, per cent of control (ICK (human)): 100%; kinase still bound, per cent of control (BRSK1 (human)): 4.9%; kinase still bound, per cent of control (EGFR (human)): 0.25%; kinase still bound, per cent of control (RPS6KA4 KD1 (human)): 0.2%; kinase still bound, per cent of control (STK10 (human)): 0%; kinase still bound, per cent of control [2]: 2.4%; kinase still bound, per cent of control (RIOK3 (human)): 0.4%; kinase still bound, per cent of control (DMPK (human)): 12%; kinase still bound, per cent of control (EPHB2 (human)): 9.6%; kinase still bound, per cent of control (TESK1 (human)): 11%; kinase still bound, per cent of control (SNRK (human)): 2.6%; kinase still bound, per cent of control (DDR1 (human)): 10%; kinase still bound, per cent of control (NTRK1 (human)): 0%; kinase still bound, per cent of control (ACVR1 (human)): 4%; kinase still bound, per cent of control (HIPK2 (human)): 13%; kinase still bound, per cent of control (IKBKE (human)): 3.6%; kinase still bound, per cent of control (RPS6KA4 KD2 (human)): 0.35%
